Numbered stars: 1 amine (or outer) side, 2 acyl side, 3 side chain; on linkers, the order of the positions; unused ones are H or OH. Square brackets hold non-standard residues; d marks the D form. Side chains are listed from the residue outwards. Peptide text beside a SMILES is read from it. * marks the point of attachment. C20 diacid = O=C(O)CCCCCCCCCCCCCCCCCCC(=O)*; γGlu = O=C(O)[C@H](CCC(=O)[*:2])N[*:1]; AEEA = NCCOCCOCC(=O)O; Aib = CC(C)(N)C(=O)O
Assays:
[1] = target: human GLP-1 receptor (GLP-1R) (Homo sapiens, UniProt P43220); assay: cAMP pharmacological functional assay in presence of casein, hGLP-1R; assay type: cell-based; conditions: HEK293 cells expressing hGLP-1R, 0.1% Casein, geometric mean; read-out: hGLP1R cAMP Rel EC50 nM (SEM, n)
Chain of human GLP-1 receptor (GLP-1R) (P43220 24-463): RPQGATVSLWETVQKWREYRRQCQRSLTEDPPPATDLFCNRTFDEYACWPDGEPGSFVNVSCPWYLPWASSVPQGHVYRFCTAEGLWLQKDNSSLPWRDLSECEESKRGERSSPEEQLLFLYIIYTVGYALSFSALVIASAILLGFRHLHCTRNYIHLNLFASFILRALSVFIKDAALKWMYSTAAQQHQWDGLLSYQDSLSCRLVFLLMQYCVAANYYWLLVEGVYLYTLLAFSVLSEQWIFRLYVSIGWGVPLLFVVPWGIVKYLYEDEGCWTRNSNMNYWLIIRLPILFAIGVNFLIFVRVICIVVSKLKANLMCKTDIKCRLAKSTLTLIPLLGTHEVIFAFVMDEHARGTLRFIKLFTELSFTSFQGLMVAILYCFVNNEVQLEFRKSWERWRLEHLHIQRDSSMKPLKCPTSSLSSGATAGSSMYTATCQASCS

[2] = target: T1, human Gcg receptor (Homo sapiens, UniProt P47871); assay: [125I]-Glucagon binding (SPA), human Gcg receptor; conditions: read-out: hGLcgR Ki, nM (SEM, n)
T1 construct: expressed in transfected cells; crude membranes
T1 sequence (P47871 26-477): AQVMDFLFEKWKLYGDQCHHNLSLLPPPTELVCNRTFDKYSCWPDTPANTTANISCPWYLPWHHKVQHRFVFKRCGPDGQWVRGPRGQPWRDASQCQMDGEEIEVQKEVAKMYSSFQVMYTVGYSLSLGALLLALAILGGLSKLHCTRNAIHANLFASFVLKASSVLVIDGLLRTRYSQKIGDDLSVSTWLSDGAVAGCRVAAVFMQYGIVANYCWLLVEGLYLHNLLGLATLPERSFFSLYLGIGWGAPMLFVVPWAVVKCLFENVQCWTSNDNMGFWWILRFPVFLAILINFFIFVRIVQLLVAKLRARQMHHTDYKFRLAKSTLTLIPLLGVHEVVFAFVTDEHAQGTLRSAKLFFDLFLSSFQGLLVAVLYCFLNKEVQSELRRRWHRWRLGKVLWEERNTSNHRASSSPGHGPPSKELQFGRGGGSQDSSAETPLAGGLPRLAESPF
Summary of the method: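 Crude membranes from cells expressing the receptor, prepared by hypotonic lysis in 50 mM Tris HCl pH 7.5 with protease inhibitors, homogenization and differential centrifugation, were used in a WGA-bead SPA. Binding buffer: 25 mM HEPES pH 7.4, 2.5 mM CaCl2, 1 mM MgCl2, bacitracin, Tween-20.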

[3] = target: human GLP-1R (Homo sapiens, UniProt P43220); assay: [125I]-GLP-1 binding (SPA), human GLP-1 receptor; parameters: expressed in transfected cells; crude membranes; conditions: read-out: hGLP1R Ki, (nM) (SEM, n)
Chain of human GLP-1R (P43220 24-463): as the sequence (P43220 24-463) above
Method: Two methods are used for the preparation of crude cell membranes.
Method 1: Frozen cell pellets are lysed on ice in hypotonic buffer containing 50 mM Tris HCl, pH 7.5, and Roche Complete™ Protease Inhibitors with EDTA. The cell suspension is disrupted using a glass Potter-Elvehjem homogenizer fitted with a Teflon® pestle for 25 strokes. The homogenate is centrifuged at 4° C. at 1100×g for 10 minutes. The supernatant is collected and stored on ice while the pellets are resuspended in homogenization buffer and rehomogenized as described above. The homogenate is centrifuged at 1100×g for 10 minutes. The second supernatant is combined with the first supernatant and centrifuged at 35000×g for 1 hour at 4° C. The resulting membrane pellet is resuspended in homogenization buffer containing protease inhibitors at approximately 1 to 3 mg/mL, quick frozen in liquid nitrogen and stored as aliquots in a−80° C. freezer until use.
Method 2: Frozen cell pellets are lysed on ice in hypotonic buffer containing 50 mM Tris HCl, pH 7.5, 1 mM MgCl2, Roche Complete™ EDTA-free Protease Inhibitors and 25 units/ml DNAse I (Invitrogen). The cell suspension is disrupted using a glass Potter-Elvehjem homogenizer fitted with a Teflon® pestle for 20 to 25 strokes. The homogenate is centrifuged at 4° C. at 1800×g for 15 minutes. The supernatant is collected and stored on ice while the pellets are resuspended in homogenization buffer (without DNAse I) and rehomogenized as described above. The homogenate is centrifuged at 1800×g for 15 minutes. The second supernatant is combined with the first supernatant and centrifuged an additional time at 1800×g for 15 minutes. The overall supernatant is then centrifuged at 25000×g for 30 minutes at 4° C. The resulting membrane pellet is resuspended in homogenization buffer (without DNAse I) containing protease inhibitors at approximately 1 to 3 mg/mL and stored as aliquots in a−80° C. freezer until use.
The binding buffer contains 25 mM HEPES, pH 7.4, 2.5 mM CaCl2, 1 mM MgCl2, 0.1% (w/v) bacitracin, 0.003% (w/v) TWEEN©-20, and Roche Complete™ Protease Inhibitors without EDTA.
Data are analyzed using four-parameter (curve maximum, curve minimum, IC50, Hill slope) nonlinear regression routines (Genedata Screener, version 12.0.4, Genedata AG, Basal, Switzerland). […] Values for Ki are reported as the geometric mean, with error expressed as the standard error of the mean (SEM) and n is equal to the number of independent replicates (determined in assays performed on different days). […] The Ki Ratio is a rapid indication of the apparent affinity of a peptide compared to the native control peptide. […] SEM is only calculated when n=2 or greater non-qualified results exist. Means are expressed as GeoMetric means with the standard error of the mean (SEM) and the number of replicates (n) indicated in parenthesis.

[4] = target: T2, human GIP receptor (Homo sapiens, UniProt P48546); assay: [125I]-GIP binding (SPA), human GIP receptor; conditions: read-out: hGIPR Ki, nM (SEM, n)
T2 construct: expressed in transfected cells; crude membranes
T2 sequence (P48546 22-466): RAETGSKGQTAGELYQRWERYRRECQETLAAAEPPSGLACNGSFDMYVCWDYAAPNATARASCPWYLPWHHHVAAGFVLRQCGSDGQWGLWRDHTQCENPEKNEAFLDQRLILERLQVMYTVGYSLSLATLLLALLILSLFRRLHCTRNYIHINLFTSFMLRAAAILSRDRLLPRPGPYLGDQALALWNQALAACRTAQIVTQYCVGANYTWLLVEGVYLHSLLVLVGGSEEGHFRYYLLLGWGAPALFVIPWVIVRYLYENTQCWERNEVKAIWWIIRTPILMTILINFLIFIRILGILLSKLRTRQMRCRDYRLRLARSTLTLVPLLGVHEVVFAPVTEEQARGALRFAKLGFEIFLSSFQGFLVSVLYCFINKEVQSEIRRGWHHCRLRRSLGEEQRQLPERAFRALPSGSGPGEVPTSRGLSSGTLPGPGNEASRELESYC

[5] = target: T3, gastric inhibitory peptide receptor (GIPR) (Homo sapiens, UniProt P48546); assay: cAMP pharmacological functional assay in presence of casein, hGIPR; assay type: cell-based; conditions: HEK293 cells expressing hGIPR, 0.1% Casein, geometric mean; read-out: hGIPR cAMP Rel EC50 nM (SEM, n)
T3 sequence (P48546 22-466): T2 sequence (P48546 22-466)

`CC[C@H](C)[C@H](NC(=O)[C@H](CO)NC(=O)[C@H](CC(=O)O)NC(=O)[C@H](CC(C)C)NC(=O)[C@H](CC(C)C)NC(=O)[C@@H](NC(=O)[C@H](CO)NC(=O)[C@H](Cc1ccc(O)cc1)NC(=O)[C@H](CC(=O)O)NC(=O)[C@H](CO)NC(=O)[C@@H](NC(=O)[C@H](Cc1ccccc1)NC(=O)[C@@H](NC(=O)CNC(=O)[C@H](CCC(=O)O)NC(=O)C(C)(C)NC(=O)[C@@H](N)Cc1ccc(O)cc1)[C@@H](C)O)[C@@H](C)O)[C@@H](C)CC)C(=O)N[C@@H](C)C(=O)N[C@@H](CCC(N)=O)C(=O)NC(C)(C)C(=O)N[C@@H](C)C(=O)N[C@@H](Cc1ccccc1)C(=O)N[C@H](C(=O)N[C@@H](CCCCNC(=O)COCCOCCNC(=O)COCCOCCNC(=O)CC[C@H](NC(=O)CCCCCCCCCCCCCCCCCCC(=O)O)C(=O)O)C(=O)N[C@@H](Cc1ccc(O)cc1)C(=O)N[C@@H](CC(C)C)C(=O)N[C@@H](CC(C)C)C(=O)N[C@@H](C)C(=O)NC(C)(C)C(=O)NCC(=O)N1CCC[C@H]1C(=O)N[C@@H](CO)C(=O)N[C@@H](CO)C(=O)NCC(=O)N[C@@H](C)C(=O)N1CCC[C@H]1C(=O)N1CCC[C@H]1C(=O)N1CCC[C@H]1C(=O)N[C@@H](CO)C(N)=O)[C@@H](C)CC` [Example 10] (H-Y[Aib]EGTFTSDYSILLDSIAQ[Aib]AFIK([AEEA-AEEA-γGlu-C20 diacid])YLLA[Aib]GPSSGAPPPS-NH2) was tested. Which EC50 [1] did it give?
The EC50 was 7.64 nM.

And the Ki [2]?
The Ki was 226 nM.

And the Ki [3]?
Its Ki is 9.33 nM.

What about the Ki [4] of the same compound?
The Ki was 0.109 nM.

And the EC50 [5]?
Its EC50 is 1.28 nM.

Which EC50 [1] does the source give for `CC[C@H](C)[C@H](NC(=O)[C@H](CO)NC(=O)[C@H](CC(=O)O)NC(=O)[C@H](CC(C)C)NC(=O)[C@H](CC(C)C)NC(=O)[C@@H](NC(=O)[C@H](CO)NC(=O)[C@H](Cc1ccc(O)cc1)NC(=O)[C@H](CC(=O)O)NC(=O)[C@H](CO)NC(=O)[C@@H](NC(=O)[C@H](Cc1ccccc1)NC(=O)[C@@H](NC(=O)CNC(=O)[C@H](CCC(=O)O)NC(=O)C(C)(C)NC(=O)[C@@H](N)Cc1ccc(O)cc1)[C@@H](C)O)[C@@H](C)O)[C@@H](C)CC)C(=O)N[C@@H](C)C(=O)N[C@@H](CCC(N)=O)C(=O)NC(C)(C)C(=O)N[C@@H](C)C(=O)N[C@@H](Cc1ccccc1)C(=O)N[C@H](C(=O)N[C@@H](CCC(=O)O)C(=O)N[C@@H](Cc1ccc(O)cc1)C(=O)N[C@@H](CC(C)C)C(=O)N[C@@H](CC(C)C)C(=O)N[C@@H](CCCCNC(=O)COCCOCCNC(=O)COCCOCCNC(=O)CC[C@H](NC(=O)CCCCCCCCCCCCCCCCCCC(=O)O)C(=O)O)C(=O)NC(C)(C)C(=O)NCC(=O)N1CCC[C@H]1C(=O)N[C@@H](CO)C(=O)N[C@@H](CO)C(=O)NCC(=O)N[C@@H](C)C(=O)N1CCC[C@H]1C(=O)N1CCC[C@H]1C(=O)N1CCC[C@H]1C(=O)N[C@@H](CO)C(N)=O)[C@@H](C)CC` [Example 11] (H-Y[Aib]EGTFTSDYSILLDSIAQ[Aib]AFIEYLLK([AEEA-AEEA-γGlu-C20 diacid])[Aib]GPSSGAPPPS-NH2) here?
The EC50 was 6.89 nM.

And the Ki [2]?
The Ki was 174 nM.

And the Ki [3]?
The Ki was 15.7 nM.

What about the Ki [4] of the same compound?
Its Ki is 0.226 nM.

What about the EC50 [5] of the same compound?
Its EC50 is 0.486 nM.

How did the EC50 [1] turn out when `CC[C@H](C)[C@H](NC(=O)[C@H](CCCCN)NC(=O)[C@H](CC(=O)O)NC(=O)[C@H](CC(C)C)NC(=O)[C@H](CC(C)C)NC(=O)[C@@H](NC(=O)[C@H](CO)NC(=O)[C@H](Cc1ccc(O)cc1)NC(=O)[C@H](CC(=O)O)NC(=O)[C@H](CO)NC(=O)[C@@H](NC(=O)[C@H](Cc1ccccc1)NC(=O)[C@@H](NC(=O)CNC(=O)[C@H](CCC(=O)O)NC(=O)C(C)(C)NC(=O)[C@@H](N)Cc1ccc(O)cc1)[C@@H](C)O)[C@@H](C)O)[C@@H](C)CC)C(=O)N[C@@H](C)C(=O)N[C@@H](CCC(N)=O)C(=O)N[C@@H](CCCCNC(=O)COCCOCCNC(=O)COCCOCCNC(=O)CC[C@H](NC(=O)CCCCCCCCCCCCCCCCCCC(=O)O)C(=O)O)C(=O)N[C@@H](C)C(=O)N[C@@H](Cc1ccccc1)C(=O)N[C@H](C(=O)N[C@@H](CCC(=O)O)C(=O)N[C@@H](Cc1ccc(O)cc1)C(=O)N[C@@H](CC(C)C)C(=O)N[C@H](C(=O)N[C@@H](CCC(=O)O)C(=O)NCC(=O)NCC(=O)N1CCC[C@H]1C(=O)N[C@@H](CO)C(=O)N[C@@H](CO)C(=O)NCC(=O)N[C@@H](C)C(=O)N1CCC[C@H]1C(=O)N1CCC[C@H]1C(=O)N1CCC[C@H]1C(=O)N[C@@H](CO)C(N)=O)[C@@H](C)CC)[C@@H](C)CC` [Example 12] (H-Y[Aib]EGTFTSDYSILLDKIAQK([AEEA-AEEA-γGlu-C20 diacid])AFIEYLIEGGPSSGAPPPS-NH2; N-terminus assumed) was run?
Its EC50 is 1.15 nM.

What about the Ki [2] of the same compound?
Its Ki is 684 nM.

And the Ki [3]?
Its Ki is 12.9 nM.

What about the Ki [4] of the same compound?
The Ki was 0.167 nM.

What about the EC50 [5] of the same compound?
The EC50 was 0.3 nM.

What does the source list for `CC[C@H](C)[C@H](NC(=O)[C@H](CC(C)C)NC(=O)[C@H](Cc1ccc(O)cc1)NC(=O)[C@H](CCC(=O)O)NC(=O)[C@@H](NC(=O)[C@H](Cc1ccccc1)NC(=O)[C@H](C)NC(=O)[C@H](CCCCNC(=O)COCCOCCNC(=O)COCCOCCNC(=O)CC[C@H](NC(=O)CCCCCCCCCCCCCCCCCCC(=O)O)C(=O)O)NC(=O)[C@H](CCC(N)=O)NC(=O)[C@H](C)NC(=O)[C@@H](NC(=O)C(C)(C)NC(=O)[C@H](CC(=O)O)NC(=O)[C@H](CC(C)C)NC(=O)[C@H](CC(C)C)NC(=O)[C@@H](NC(=O)[C@H](CO)NC(=O)[C@H](Cc1ccc(O)cc1)NC(=O)[C@H](CC(=O)O)NC(=O)[C@H](CO)NC(=O)[C@@H](NC(=O)[C@H](Cc1ccccc1)NC(=O)[C@@H](NC(=O)CNC(=O)[C@H](CCC(=O)O)NC(=O)C(C)(C)NC(=O)[C@@H](N)Cc1ccc(O)cc1)[C@@H](C)O)[C@@H](C)O)[C@@H](C)CC)[C@@H](C)CC)[C@@H](C)CC)C(=O)N[C@@H](CCC(=O)O)C(=O)NCC(=O)NCC(=O)N1CCC[C@H]1C(=O)N[C@@H](CO)C(=O)N[C@@H](CO)C(=O)NCC(=O)N[C@@H](C)C(=O)N1CCC[C@H]1C(=O)N1CCC[C@H]1C(=O)N1CCC[C@H]1C(=O)N[C@@H](CO)C(N)=O` [Example 13] (H-Y[Aib]EGTFTSDYSILLD[Aib]IAQK([AEEA-AEEA-γGlu-C20 diacid])AFIEYLIEGGPSSGAPPPS-NH2)?
EC50 [1]: 5.39 nM; Ki [2]: > 1060 nM; Ki [3]: 31.1 nM; Ki [4]: 0.296 nM; EC50 [5]: 1.05 nM

— patent US12252524B2, “GIP/GLP1 co-agonist compounds” (Eli Lilly and Company, priority 2018, dated 2025)
